# Reference: publication PMC12222587, “A2B adenosine receptor-triggered intracellular calcium mobilization: Cell type-dependent involvement of Gi, Gq, Gs proteins and protein kinase C” (Purinergic Signalling, 2025)
# Entries after “also recorded” stand apart in the source; their conditions may differ. *1 amine or outer side, *2 acyl side, *3 side chain or, on linkers, in order; H or OH if unused. Where a SMILES comes first, the peptide text is derived from it. Bridges are numbered along the chain shown (N, C = ends). [ ]: non-standard residue; d: D form. X2 = CC(=O)NC(C(=O)OC(C(C)C)C(N[*:1])C(=O)[*:2])C(O)C(C)C; PhLac = O=C(O)[CH](O)Cc1ccccc1; NMeT = CN[CH](C(=O)O)[CH](C)O; NMeA = CN[CH](C)C(=O)O; NMeDha = C=C(NC)C(=O)O
# Key:
# P2Y1R [1] = molecular target: T1, P2Y1R (Homo sapiens, UniProt P47900); test: Intracellular calcium mobilization, T24 bladder cancer cells, native P2Y1R (MRS2365); type: cell-based; conditions: for Effect on native P2Y1R (MRS2365)-triggered calcium mobilization: YM 300 nM, FR 300 nM, PTX 200 ng/ml overnight
# T1 sequence (P47900 whole entry): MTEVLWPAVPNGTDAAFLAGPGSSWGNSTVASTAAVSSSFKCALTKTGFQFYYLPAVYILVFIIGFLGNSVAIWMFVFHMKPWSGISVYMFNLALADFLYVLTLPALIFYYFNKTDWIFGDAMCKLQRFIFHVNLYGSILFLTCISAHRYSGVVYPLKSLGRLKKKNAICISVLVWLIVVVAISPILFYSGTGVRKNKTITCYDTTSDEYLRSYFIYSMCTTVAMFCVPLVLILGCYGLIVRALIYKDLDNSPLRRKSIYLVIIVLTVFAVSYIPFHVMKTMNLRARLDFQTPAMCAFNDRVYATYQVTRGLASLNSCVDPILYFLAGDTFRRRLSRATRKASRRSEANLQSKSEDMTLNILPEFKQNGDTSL
# β2-adrenergic receptor = β2-adrenergic receptor (Homo sapiens, UniProt P07550); test: Intracellular calcium mobilization, T24 bladder cancer cells, endogenous β2-adrenergic receptor; type: cell-based; conditions: T24 cells; for Effect on formoterol-induced calcium mobilization (β2-adrenergic receptor): PTX 200 ng/ml, CTX 500 ng/ml
# A2BAR = molecular target: T2, A2BAR (Homo sapiens, UniProt P29275); test: Intracellular calcium mobilization, T24 bladder cancer cells, native A2BAR (NECA); type: cell-based; conditions: T24 cells; for Effect on native A2BAR (NECA)-triggered calcium mobilization: YM 300 nM, FR 300 nM, PTX 200 ng/ml, CTX 500 ng/ml overnight, other inhibitors 20 min before NECA
# T2 sequence (P29275 1-332): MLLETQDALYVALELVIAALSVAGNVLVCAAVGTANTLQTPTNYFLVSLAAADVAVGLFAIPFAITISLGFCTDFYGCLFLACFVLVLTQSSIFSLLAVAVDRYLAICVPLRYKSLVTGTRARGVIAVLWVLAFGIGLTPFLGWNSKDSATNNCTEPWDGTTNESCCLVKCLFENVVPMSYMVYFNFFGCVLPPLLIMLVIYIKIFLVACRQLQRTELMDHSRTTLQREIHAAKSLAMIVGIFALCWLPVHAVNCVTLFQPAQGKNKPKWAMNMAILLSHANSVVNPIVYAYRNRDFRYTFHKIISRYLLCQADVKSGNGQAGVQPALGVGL
# A2AAR = molecular target: T3, A2AAR (Homo sapiens, UniProt P29274); test: cAMP accumulation, HEK293 cells, A2AAR-mediated stimulation (CGS21680); type: cell-based
# T3 construct: host or cells: HEK293
# T3 sequence (P29274 whole entry): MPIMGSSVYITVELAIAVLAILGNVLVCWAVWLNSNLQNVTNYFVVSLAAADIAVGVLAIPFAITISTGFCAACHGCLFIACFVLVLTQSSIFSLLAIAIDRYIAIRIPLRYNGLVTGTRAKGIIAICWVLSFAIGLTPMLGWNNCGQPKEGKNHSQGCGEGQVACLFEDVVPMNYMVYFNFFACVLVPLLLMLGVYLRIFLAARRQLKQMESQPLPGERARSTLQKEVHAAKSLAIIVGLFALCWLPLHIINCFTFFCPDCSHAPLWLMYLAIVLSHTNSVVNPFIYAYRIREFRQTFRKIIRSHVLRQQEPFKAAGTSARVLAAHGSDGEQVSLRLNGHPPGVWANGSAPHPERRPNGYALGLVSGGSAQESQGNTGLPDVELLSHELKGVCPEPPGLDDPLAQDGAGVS
# Method: (§1) HEK293, T24 bladder cancer and MDA-MB-231 breast cell lines were cultured in DMEM medium containing 10% fetal bovine serum, 100 units/ml penicillin, 100 μg/ml streptomycin, and 2 μmol/ml glutamine. For the assay of 3′,5′-cyclic adenosine monophosphate (cAMP), cells were plated in 96-well (4 × 10^4 cells/well) clear plates in 100 μl of medium overnight. Cell culture medium was then replaced with 80 µl HBSS buffer containing 20 mM HEPES, phosphodiesterase inhibitor rolipram (10 μM), and 3 units/ml adenosine deaminase (Worthington Biochemical, Lakewood, NJ, USA) for 30 min followed by agonist addition to the mixture, which was then incubated for 20 min. The treatment of YM or FR was 20 min before agonist addition.
# A1AR [2] = molecular target: T4, A1AR (Homo sapiens, UniProt P30542); test: Intracellular calcium mobilization, HEK293 cells expressing recombinant A1AR (CCPA); type: cell-based; conditions: for Effect on A1AR (CCPA)-mediated calcium mobilization: HEK293 cells overexpressing A1AR, Gq/11 siRNA 250 nM, PTX 200 ng/ml overnight, FR, YM 20 min before agonist
# T4 construct: expressed in transfected cells
# T4 sequence (P30542 1-326): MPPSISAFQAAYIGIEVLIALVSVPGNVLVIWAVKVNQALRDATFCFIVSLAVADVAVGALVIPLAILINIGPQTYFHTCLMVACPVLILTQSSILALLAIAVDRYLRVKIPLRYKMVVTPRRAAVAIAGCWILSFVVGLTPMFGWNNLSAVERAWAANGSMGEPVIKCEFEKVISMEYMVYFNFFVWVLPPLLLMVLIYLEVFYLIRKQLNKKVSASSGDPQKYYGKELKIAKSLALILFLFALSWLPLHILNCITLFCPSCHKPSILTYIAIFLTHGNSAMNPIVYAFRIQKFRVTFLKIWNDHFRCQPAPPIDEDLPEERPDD
# LPA receptor = test: Intracellular calcium mobilization, HEK293 cells, endogenous LPA receptor; type: cell-based, human
# P2Y1R [3] = molecular target: T1, P2Y1R; test: Intracellular calcium mobilization, HEK293 cells, native P2Y1R (MRS2365); type: cell-based; conditions: for Effect on P2Y1R (MRS2365)-mediated calcium mobilization: Gq/11 siRNA 250 nM, PTX 200 ng/ml overnight, FR, YM 20 min before agonist
# A1AR [4] = test: Calcium increase, CHO cells expressing recombinant A1AR (CCPA); type: cell-based; conditions: recombinant A1 receptor, CCPA 1 µM, read-out: IC50 in inhibiting the effect of CCPA (Ca2+ increase)
# P2Y1R [5] = conditions: 1321N1 astrocytoma (P2Y1-overexpressing); ref Gao and Jacobson, 2017 [29]; cited from earlier work
# M2 muscarinic receptor = test: Calcium increase, CHO cells expressing recombinant M2 muscarinic receptor (carbachol); type: cell-based; conditions: carbachol 10 µM, read-out: IC50 in inhibiting the effect of carbachol (Ca2+ increase)
# A1AR [6] = molecular target: T4, A1AR; test: cAMP accumulation, HEK293 cells, A1AR-mediated inhibition of forskolin-stimulated cAMP (CCPA); type: cell-based
# Method: as §1
# [7] = test system: endogenous adenosine receptors; test: cAMP accumulation, MDA-MB-231 cells expressing endogenous adenosine receptors; type: cell-based, human
# Method: as §1
# HMC-1 cells = conditions: HMC-1 cells; ref Feoktistov et al., 1995 [30]; cited from earlier work
# A1AR [8] = conditions: FR 100 nM; cited from earlier work
# [9] = GO 20 min, then PMA 20 min before agonist
compound,measurement,setting,value
CSc1nc(N)c2ncn([C@H]3[C@H](O)[C@H](O)[C@]4(COP(=O)(O)OP(=O)(O)O)C[C@H]34)c2n1 [MRS2365],EC50,P2Y1R [1]; absence of PTX,1.38 ± 0.26 nM
"CCCCCCCCCCCCCC(=O)O[C@@H]1[C@@H](C)[C@@]2(O)[C@@H](C=C(CO)C[C@]3(O)C(=O)C(C)=C[C@@H]23)[C@@H]2C(C)(C)[C@]12OC(C)=O [PMA, phorbol 12-myristate 13-acetate]",Effect on isoproterenol-induced calcium mobilization (β2-adrenergic receptor),"β2-adrenergic receptor; FR 300 nM, PMA 1 µM",completely diminished
same,Effect on formoterol-induced calcium mobilization (β2-adrenergic receptor),"β2-adrenergic receptor; FR 300 nM, YM 1 µM, PMA 1 µM",completely diminished; also recorded: PMA completely sensitive (8)
same,Effect on native P2Y1R (MRS2365)-triggered calcium mobilization,P2Y1R [1],completely eliminated
same,Effect on native A2BAR (NECA)-triggered calcium mobilization,A2BAR,partially diminished; also recorded: PMA partially sensitive (8)
COc1ccc2c(c1)c(C1=C(c3c[nH]c4ccccc34)C(=O)NC1=O)cn2CCCN(C)C [GO],Effect of pretreatment on the PMA effect at P2Y1R-triggered Ca2+ increase,P2Y1R [1]; [9],eliminated the effect of PMA
same,Effect on native P2Y1R (MRS2365)-triggered calcium mobilization,P2Y1R [1],significantly enhanced
same,Effect of pretreatment on the PMA effect at A2BAR-triggered Ca2+ increase,A2BAR; [9],eliminated the effect of PMA
"C=C1C(=O)NC(C)C(=O)N(C)C(C)C(=O)NC(C(OC(=O)C(NC(C)=O)C(O)C(C)C)C(C)C)C(=O)N(C)C(C(C)OC)C(=O)OC(C)C(NC(C)=O)C(=O)OC(Cc2ccccc2)C(=O)N1C (stereo not shown) [YM, YM254890] (Ac-T[PhLac][NMeDha]A[NMeA][X2][NMeT](Me); ester 1-C; configuration not given here)",Effect on A2AAR-mediated stimulation of cAMP accumulation,A2AAR,did not affect
same,Effect on formoterol-induced calcium mobilization (β2-adrenergic receptor),"β2-adrenergic receptor; FR 300 nM, YM 1 µM, PMA 1 µM",YM – partially sensitive (6)
same,"Inhibition of the maximum effect (Emax) of formoterol, calcium mobilization",β2-adrenergic receptor; YM 1 µM,78%
same,Effect on A1AR (CCPA)-mediated calcium mobilization,A1AR [2],inhibited; also recorded: YM and FR – fully sensitive (2)
same,IC50,"A1AR [2]; HEK293 cells, overexpressed A1AR, agonist CCPA 1 µM, read-out: IC50 for inhibition of A1AR-mediated calcium mobilization",12.9 ± 2.52 nM
same,Effect on native P2Y1R (MRS2365)-triggered calcium mobilization,P2Y1R [1],completely inhibited; also recorded: YM – fully sensitive (4)
same,Effect on LPA-induced intracellular calcium mobilization,LPA receptor; YM 300 nM,completely inhibited
same,Effect on P2Y1R (MRS2365)-mediated calcium mobilization,P2Y1R [3],inhibited; also recorded: fully sensitive
same,IC50,"P2Y1R [3]; agonist MRS2365 1 µM, read-out: IC50 to inhibit P2Y1R-mediated calcium mobilization",12.8 ± 4.1 nM
same,IC50,A1AR [4],11.6 nM
same,Sensitivity of P2Y1R calcium mobilization to modulator,P2Y1R [5],YM sensitive
same,IC50,M2 muscarinic receptor,9.53 nM
same,Effect on native A2BAR (NECA)-triggered calcium mobilization,A2BAR,little if any effect; also recorded: FR and YM insensitive (4); Gαq/11 siRNA insensitive (4)
same,Effect on A1AR-mediated inhibition of cAMP accumulation,A1AR [6],did not affect
COc1ccc2c(c1)CC[C@@H]1[C@@H]2CC[C@]2(C)[C@@H](NCCCCCCN3C(=O)C=CC3=O)CC[C@@H]12 [U73122],Effect on native A2BAR (NECA)-triggered calcium mobilization,A2BAR,completely inhibited
CCNC(=O)[C@H]1O[C@@H](n2cnc3c(N)nc(NCCc4ccc(CCC(=O)O)cc4)nc32)[C@H](O)[C@@H]1O [CGS21680],EC50,[7],2240 ± 850 nM
Pertussis toxin [PTX],Sensitivity of NECA-induced Ca2+ increase to toxin,HMC-1 cells,"^b NECA-induced Ca^2+ increase in HMC-1 cells was insensitive to CTX and PTX, Feoktistov et al., 1995 [30]"
same,Effect on formoterol-induced calcium mobilization (β2-adrenergic receptor),"β2-adrenergic receptor; FR 300 nM, YM 1 µM, PMA 1 µM",did not produce significant attenuation; also recorded: PTX not sensitive (6)
same,Effect on A1AR (CCPA)-mediated calcium mobilization,A1AR [2],completely inhibited; also recorded: PTX sensitive (1)
same,Effect on native P2Y1R (MRS2365)-triggered calcium mobilization,P2Y1R [1],no effect; also recorded: PTX insensitive (5)
same,Effect on P2Y1R (MRS2365)-mediated calcium mobilization,P2Y1R [3],no effect; also recorded: PTX insensitive (1)
same,Sensitivity of P2Y1R calcium mobilization to modulator,P2Y1R [5],PTX insensitive
same,Effect on native A2BAR (NECA)-triggered calcium mobilization,A2BAR,diminished; also recorded: PTX sensitive (5)
same,Effect on A1AR-mediated Akt1/2/3 phosphorylation,A1AR [8],completely inhibited
lysophosphatidic acid [LPA],EC50,"LPA receptor; endogenous LPA receptor, read-out: EC50 of induced intracellular calcium mobilization",4590 nM
"CCNC(=O)[C@H]1O[C@@H](n2cnc3c(N)ncnc32)[C@H](O)[C@@H]1O [NECA, adenosine-5′-N-ethyluronamide]",EC50,[7],73.1 ± 18.2 nM
